Laboratory results as given in patent publication US20220024877A1 (Kansas State University Research Foundation, priority 2018, published 2022).
Converted amounts (≈) assume the structure as drawn. Where two headings read alike, the source gives them in different places.

What was measured:
[1] = test system: S. aureus clinical isolate SA3; assay: Zinc-activated activity, MIC with Zn2+ as trigger; details: Staphylococcus aureus
[2] = Copper(I) binding constant of NNSN compounds (1H-NMR titration with CuBr in D4-methanol); details: for Binding constant: Cu-NNSN 1:1 stoichiometry; for Copper (I) binding constant: Table I
Protocol: They were recorded in D4-methanol by means of adding aliquots of a 5 mmol CuBr stock solution in D4-methanol to the 1 mmol NNSN-compound, resulting in 0, 0.5, 1.0, 2.0 and 3.0 mmol CuBr concentration in D4-methanol.

[3] = Therapeutic index (approx.)
[4] = test system: MRSA; assay: In vitro activity against S. aureus (MRSA), MIC with or without Cu supplementation; details: Staphylococcus aureus, MRSA
Protocol: S. aureus was inoculated in Mueller-Hinton medium from frozen stocks and grown for 2-4 h (until reaching an OD600˜1) at 37° C. while shaking. Once the OD was reached, bacteria were harvested and diluted in Phenolred-free RPMI1640 medium to an OD of 0.01 (=inoculum). Test compounds where diluted from frozen DMSO-stocks were diluted in Phenolred-free RPMI1640 medium with or without Cu supplementation (100 μM) and serially diluted in 96-well plates in the same medium to achieve a final concentration of between 0.08 and 10 μM after addition of an equal volume of inoculum. Medium-only controls and growth controls in the absence of test compounds were also included. The plates were placed in sealed bags and incubated at 37° C. After 15-20 h incubation time, an OD600 reading was taken and analyzed. […] If kinetic data were required, resazurin was added to each well. Using a plate reader with incubation chamber, resazurin conversion was monitored by fluorescence reading every 20 min for up to 24 h. After normalizing the data to respective controls, the MIC was determined using the same definition as above.

[5] = log P (octanol/water partition coefficient); assay type: physicochemical
[6] = test system: S. aureus strain 1471; assay: Drop assay against S. aureus strain 1471 with or without copper
Protocol: For the drop assay, bacteria were grown in wells with or without copper, using a 1:2 drug titration starting at 10 μM.

[7] = test system: Avirulent Mtb strain mc26206 (H37Rv ΔpanCD ΔleuCD, double auxotroph); assay: microbe, parasite or virus in culture; assay type: cell-based; details: Mycobacterium tuberculosis
[8] = test system: multi-drug resistant Gram-positive bacteria; details: current antibiotics, background section; cited from earlier work
[9] = read-out: MIC* against MRSA (μM), kinetic data (determined from bacteria growth experiments), resulting in IC50 values similar to MIC values
[10] = Staphylococcus aureus, 1471, read-out: MIC: +50 μM Cu
[11] = Staphylococcus aureus, MRSA, read-out: MIC against MRSA (clinical isolate 1471)

Compound	Therapeutic index (approx.) [3]	Copper (I) binding constant [2] [M⁻¹]	MIC [4, 9] [µM]	logP [5]	MIC [6, 11] [µM]	also measured
Cc1ccn(C(=S)Nc2ccc(Cl)cc2)n1 [SB17]	–	–	–	–	–	MIC [1]: 5 µM (≈ 1.26 µg/mL); Binding constant [2]: 54020 M⁻¹
Nc1ccn(C(=S)Nc2ccc([N+](=O)[O-])cc2)n1 [SB27, 3-amino-N-(4-nitrophenyl)-1H-pyrazole-1-carbothioamide]	1	10460	0.3 (≈ 0.079 µg/mL)	–	–	–
CN(C(=S)Nc1cccc(Cl)c1)c1ccn(C(=S)Nc2cccc(Cl)c2)n1 [SB54, N-(3-chlorophenyl)-3-(3-(3-chlorophenyl)-1-methylthioureido)-1H-pyrazole-1-carbothioamide]	–	–	–	5.9	0.15 (≈ 0.0655 µg/mL)	MIC [6, 10]: 0.15 µM (≈ 0.0655 µg/mL)
S=C(Nc1ccc(Cl)cc1)n1ccc(OCc2ccccc2)n1 [SB44, 3-(benzyloxy)-N-(4-chlorophenyl)-1H-pyrazole-1-carbothioamide]	–	–	0.15 (≈ 0.0516 µg/mL)	4.74	0.15 (≈ 0.0516 µg/mL)	–
Nc1ccn(C(=S)Nc2ccc(Cl)cc2)n1 [APM03, 3-amino-N-(4-chlorophenyl)-1H-pyrazole-1-carbothioamide]	2	53225	0.07 (≈ 0.0177 µg/mL)	2.1	0.6 (≈ 0.152 µg/mL)	MIC [1]: 2.5 µM (≈ 0.632 µg/mL); IC50 ([7]; read-out: IC50 +Cu): 300 nM; IC50 ([7]; read-out: IC50 −Cu): > 12500 nM; MIC90 ([7]; read-out: MIC90 +Cu): 0.5 µM (≈ 0.126 µg/mL); MIC90 ([7]; read-out: MIC90 −Cu): > 25 µM; MIC [6, 10]: 1.25 µM (≈ 0.316 µg/mL); MIC ([4]; read-out: MIC against the clinical isolate SA3, SA3 resistant to ampicillin, clindamycin, erythromycin, penicillin, and tetracycline): 70 µM (≈ 17.7 µg/mL)
COc1ccc(NC(=S)n2cccn2)cc1 [SB22, N-(4-methoxyphenyl)-1H-pyrazole-1-carbothioamide]	>2	3975	10 (≈ 2.33 µg/mL)	–	–	Binding constant [2]: 3975 M⁻¹; MIC ([4]; organism not named there): 10 µM (≈ 2.33 µg/mL)
CN[C@H](CC(C)C)C(=O)N[C@H]1C(=O)N[C@@H](CC(N)=O)C(=O)N[C@H]2C(=O)N[C@H]3C(=O)N[C@H](C(=O)N[C@H](C(=O)O)c4cc(O)cc(O)c4-c4cc3ccc4O)[C@H](O)c3ccc(c(Cl)c3)Oc3cc2cc(c3O[C@@H]2O[C@H](CO)[C@@H](O)[C@H](O)[C@H]2O[C@H]2C[C@](C)(N)[C@H](O)[C@H](C)O2)Oc2ccc(cc2Cl)[C@H]1O [Vancomycin]	–	–	–	–	–	minimum inhibitory concentrations (MICs) [8]: 2.2 µM (≈ 3.19 µg/mL)
